Test results published in ChEMBL document CHEMBL5729239, “Aryl, heteroaryl, and heterocyclic compounds for treatment of immune and inflammatory disorders” (2022).

Target: Complement factor D (Homo sapiens, UniProt P00746)
Assay: Human Factor D Assay: Human Factor D (purified from human serum, Complement Technology, Inc.) at 80 nM final concentration is incubated with test compound at various concentrations for 5 min at room temperature in 50 mM Tris, 1M NaCl, pH 7.5. A synthetic substrate Z-L-Lys-SBzl and DTNB (Ellman's reagent) are added to final concentrations of 100 μM each. […] IC50 values are calculated by nonlinear regression of complement Factor D reaction rates as a function of test compound concentration.

Sequence of Complement factor D (P00746 whole entry): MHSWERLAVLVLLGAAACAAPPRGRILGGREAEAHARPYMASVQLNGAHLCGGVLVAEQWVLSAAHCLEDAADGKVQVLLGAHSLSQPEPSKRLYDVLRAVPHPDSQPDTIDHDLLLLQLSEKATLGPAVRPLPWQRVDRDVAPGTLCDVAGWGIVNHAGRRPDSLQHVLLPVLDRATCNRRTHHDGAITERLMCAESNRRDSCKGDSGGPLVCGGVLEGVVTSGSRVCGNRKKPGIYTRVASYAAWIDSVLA

First: CC(=O)c1nn(CC(=O)N2C[C@H](F)C[C@H]2C(=O)O)c2ccc(-c3cnc(C)nc3)cc12
Second: CC(=O)c1nn(CC(=O)N2C[C@H](F)C[C@H]2C(=O)NCCC(C)(C)C)c2ccc(-c3cnc(C)nc3)cc12
The IC50 of the first is higher: greater than 10000 nM for the first, less than 1000 nM for the second.

Compared with `Cc1cccc(CC(O)[C@@H]2C[C@@H](F)CN2C(=O)Cn2cc(C(N)=O)c3cc(-c4cnc5cc(C)nn5c4)ccc32)n1` (stereo partly specified), `CC(=O)c1nn(CC(=O)N2C[C@H](F)C[C@H]2C(=O)NCCOC(F)(F)F)c2ccc(-c3cnc(C)nc3)cc12` is lower in IC50: greater than 10000 nM for the first, less than 1000 nM for the second.

`NC(=O)c1cc(-c2ccco2)n(CC(=O)N2C[C@H](F)C[C@H]2C(=O)Nc2cccc(Br)n2)n1` and `CC(=O)c1nn(CC(=O)N2C[C@H](F)C[C@H]2C(=O)Nc2cccc(-c3ccccc3Cl)c2F)c2ccc(N3C[C@H]4CCCC[C@H]4C3)cc12` cannot be ordered by IC50: less than 1000 nM for the first, less than 1000 nM for the second.
